Columns and labels:
Ovariectomized rats = experiment: Vaginal keratinization test on ovariectomized rats (Example C.2); type: in vivo; details: estradiol undecylate induced keratinization, per os once daily on days 1-3, active dose = 50% of rats show complete suppression
In short: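 Value is the lowest oral dose (mg/kg) at which half of tested rats show complete suppression of estradiol undecylate-induced vaginal keratinization by histology. Ovariectomized rats received 100 μg/100 g estradiol undecylate s.c., then compound or PEG 200 vehicle p.o. daily for three days; sacrifice one day later.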

[1] = system: metabolism of retinoic acid in human breast cancer cells; experiment: Inhibition of retinoic acid (RA) metabolism (Example C.1); type: cell-based; details: MCF-7 human breast cancer cells, 3H-RA as substrate; concentration needed to reduce the amount of metabolites to 50% of the control
In short: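 Test compound (in 1% DMSO) added at several concentrations to MCF-7 cell suspensions fed ³H-RA, after RA induction of metabolism one day earlier. Scintillation counting of the separated polar metabolite fraction; IC50 = concentration giving 50% of control metabolite level.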

Compound	IC50 [1] [µM]	LAD (lowest active dose) (Ovariectomized rats) [mg/kg]
C/C(=C\c1ccncc1)C(=O)Nc1ccc(C(C(C)C)n2cncn2)cc1 (stereo not shown) [Compound 158]	> 0.1	>10.00
C/C(=C\c1ccc(C(F)(F)F)cc1)C(=O)Nc1ccc(C(C(C)C)n2cncn2)cc1 (stereo not shown) [Compound 159]	> 0.1	>10.00
CC(C)C(c1ccc(NC(=O)c2cccc3ccccc23)cc1)n1ccnc1 (stereo not shown) [Compound 182]	0.0131	10.00
CC(C)C(c1ccc(NC(=O)c2cccs2)cc1)n1ccnc1 (stereo not shown) [Compound 187]	0.0188	>10.00
CC(C)C(c1ccc(NC(=O)C2(c3ccccc3)CC2)cc1)n1ccnc1 (stereo not shown) [Compound 190]	> 0.1	>10.00
CC(C)C(c1ccc(NC(=O)C2(c3ccccc3)CCCC2)cc1)n1ccnc1 (stereo not shown) [Compound 191]	> 0.1	>10.00
CC(C)C(c1ccc(NC(=O)c2cccn2C)cc1)n1ccnc1 (stereo not shown) [Compound 195]	0.0351	>10.00
CC(C)C(c1ccc(NC(=O)C2CC2)cc1)n1ccnc1 (stereo not shown) [Compound 199]	0.00782	>10.00
CC(C)C(c1ccc(NC(=O)C2(c3ccccc3)CCCCC2)cc1)n1ccnc1 (stereo not shown) [Compound 200]	0.0443	>10.00
CC/C(=C(\C)C(=O)Nc1ccc(C(C(C)C)n2ccnc2)cc1)c1ccccc1 (stereo not shown) [Compound 203]	0.0228	>10.00
CC(O)C(=O)Nc1ccc(C(C(C)C)n2ccnc2)cc1 (stereo not shown) [Compound 249]	0.0758	5.00
Cc1onc(-c2ccccc2)c1C(=O)Nc1ccc(C(C(C)C)n2ccnc2)cc1 (stereo not shown) [Compound 250]	0.0149	>10.00
CNC(=O)Nc1ccc(C(C(C)C)n2ccnc2)cc1 (stereo not shown) [Compound 267]	0.00775	>10.00
CC(C)C(c1ccc(NC(=O)NCc2ccc(Cl)cc2)cc1)n1ccnc1 (stereo not shown) [Compound 273]	0.0527	>10.00
CC(C)CCC(c1ccc(NC(=O)Cc2ccc(Cl)cc2)cc1)n1ccnc1 (stereo not shown) [Compound 355]	> 0.1	>10.00
O=C(Cc1ccc(Cl)cc1)Nc1ccc(C(c2ccccc2)n2ccnc2)cc1 (stereo not shown) [Compound 357]	> 0.1	>10.00
O=C(Cc1ccc(Cl)cc1)Nc1ccc(C(c2cccc(C(F)(F)F)c2)n2ccnc2)cc1 (stereo not shown) [Compound 361]	> 0.1	10.00
O=C(Cc1ccc(Cl)cc1)Nc1ccc(C(C2CCCCC2)n2ccnc2)cc1 (stereo not shown) [Compound 362]	0.0143	10.00
O=C(Nc1ccc(C(c2ccccc2)n2ccnc2)cc1)C(O)c1ccccc1 (stereo not shown) [Compound 420]	0.0838	>20.00
O=C(Nc1ccc(C(c2ccc(Cl)cc2)n2ccnc2)cc1)C(O)c1ccccc1 (stereo not shown) [Compound 423]	0.0408	20.00
O=C(Nc1ccc(C(c2ccccc2)n2ccnc2)cc1)C1COc2ccccc2O1 (stereo not shown) [Compound 425]	0.0381	>10.00
O=C(CC1COc2ccccc2O1)Nc1ccc(C(c2ccccc2)n2ccnc2)cc1 (stereo not shown) [Compound 426]	> 0.1	>10.00
CC(C)C(c1ccc(NC(=O)C(=Cc2ccccc2)c2ccccc2)cc1)n1ccnc1 (stereo not shown) [Compound 454]	0.0525	>20.00
CC(C)/C(=C\c1ccccc1)C(=O)Nc1ccc(C(C(C)C)n2ccnc2)cc1 (stereo not shown) [Compound 471]	> 0.1	>10.00
C/C(=C\c1ccccc1)C(=O)Nc1ccc(C(CCC(C)C)n2ccnc2)cc1 (stereo not shown) [Compound 475]	> 0.1	>10.00
CC(=Cc1ccccc1)C(=O)Nc1ccc(C(CC(C)(C)C)n2ccnc2)cc1 (stereo not shown) [Compound 476]	0.0355	>10.00
C/C(=C\c1ccccc1)C(=O)Nc1ccc(C(/C=C/C(C)C)n2ccnc2)cc1 (stereo not shown) [Compound 479]	> 0.1	>10.00
CCCC(CCC)C(c1ccc(NC(=O)/C(C)=C/c2ccccc2)cc1)n1ccnc1 (stereo not shown) [Compound 486]	0.0277	5.00
CC(=O)Nc1ccc(C(c2cccc(C(F)(F)F)c2)n2ccnc2)cc1 (stereo not shown) [Compound 524]	> 1	20.00

Molecules with a lower IC50 [1], results first:

IC50 [1] [µM]	Compound	LAD (lowest active dose) (Ovariectomized rats) [mg/kg]
0.00187	CC(C)C(c1ccc(NC(=O)C2Oc3ccccc3O2)cc1)n1cncn1 (stereo not shown) [Compound 161]	>2.50
0.00288	CC(C)C(c1ccc(NC(=O)CC2COc3ccccc3O2)cc1)n1cncn1 (stereo not shown) [Compound 162]	>5.00
0.00483	CC(C)C(c1ccc(NC(=O)C2COc3ccccc3O2)cc1)n1ccnc1 (stereo not shown) [Compound 175]	10.00
0.0074	CCOC(=O)Nc1ccc(C(C(C)C)n2ccnc2)cc1 (stereo not shown) [Compound 183]	>10.00
0.00407	COCC(=O)Nc1ccc(C(C(C)C)n2ccnc2)cc1 (stereo not shown) [Compound 212]	20.00
0.00337	CC(C)C(c1ccc(NC(=O)c2ccc3nccnc3c2)cc1)n1ccnc1 (stereo not shown) [Compound 214]	20.00
0.00514	CC(C)C(c1ccc(NC(=O)C2CCc3ccccc3O2)cc1)n1ccnc1 (stereo not shown) [Compound 217]	10.00
0.00108	CC(C)C(c1ccc(NC(=O)c2cccc(F)c2)cc1)n1ccnc1 (stereo not shown) [Compound 221]	10.00
0.00473	CC(C)C(c1ccc(NC(=O)CSc2ncccn2)cc1)n1ccnc1 (stereo not shown) [Compound 224]	>10.00
0.00164	CC(C)C(c1ccc(NC(=O)c2nccc3ccccc23)cc1)n1ccnc1 (stereo not shown) [Compound 229]	>10.00
0.00301	CC(C)C(c1ccc(NC(=O)C2=COc3ccccc3O2)cc1)n1ccnc1 (stereo not shown) [Compound 234]	10.00
0.00179	CC(C)C(c1ccc(NC(=O)C2Oc3ccccc3O2)cc1)n1ccnc1 (stereo not shown) [Compound 248]	2.50
0.00393	CC(C)C(c1ccc(NC(=O)Cc2cccnc2)cc1)n1ccnc1 (stereo not shown) [Compound 251]	10.00
0.00266	CC(C)C(c1ccc(NC(=O)NCc2ccccc2)cc1)n1ccnc1 (stereo not shown) [Compound 269]	>10.00
0.00142	CCCC(c1ccc(NC(=O)Cc2ccc(Cl)cc2)cc1)n1ccnc1 (stereo not shown) [Compound 363]	>10.00
0.00108	CC(C)(C)C(c1ccc(NC(=O)Cc2ccc(Cl)cc2)cc1)n1ccnc1 (stereo not shown) [Compound 365]	10.00
0.00197	CCC(c1ccc(NC(=O)Cc2ccc(Cl)cc2)cc1)n1ccnc1 (stereo not shown) [Compound 372]	5.00
0.00081	CCC(C)C(c1ccc(NC(=O)Cc2ccc(O)c(OC)c2)cc1)n1ccnc1 (stereo not shown) [Compound 432]	>2.50

From patent publication US7179825B2, “Retinoic acid mimetic anilides” (Janssen Pharmaceutica N.V., priority 1997, dated 2007)
